# Experimental data published in patent publication US8871756B2 (Hoffmann-La Roche Inc., priority 2011, dated 2014).
# Counter-ions that a name gives are not always drawn.
# System: RSV Long strain
# Test: Viral cytopathic effect (CPE) assay, anti-RSV activity
# Type: cell-based, Respiratory Syncytial Virus
# Conditions: human respiratory syncytial virus, 144 h, RSV Long strain (ATCC); cell viability after 6 days, Cell Counting kit-8
# How it was run: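 EC50 was derived from CCK-8 viability at 450/630 nm measured 6 days post-infection. Infection used enough RSV Long strain for approximately 80–90% cytopathic effect, in the presence of half-log serially diluted compound. Cells were plated the day before at 6×10^3 per well in DMEM/10% FBS.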
row,SMILES,EC50 [µM]
1,"CCOc1ccc2c(c1)CN(c1cc(NCCN)c3ccccc3n1)CCC2 [Example 121, N-[2-(8-Ethoxy-1,3,4,5-tetrahydro-2H-2-benzazepin-2-yl)quinolin-4-yl]ethane-1,2-diamine]",1.1
2,"NCCNc1cc(N2CCCc3ccccc3C2)nc2ccc(Oc3ccccn3)cc12 [Example 122, N-[6-(Pyridin-2-yloxy)-2-(1,3,4,5-tetrahydro-2H-2-benzazepin-2-yl)quinolin-4-yl]ethane-1,2-diamine]",3.12
3,"CN(C)C(=O)c1ccc2c(c1)CCCN(c1cc(NCCN)c3cc(Cl)ccc3n1)C2 [Example 123, 2-{4-[(2-Aminoethyl)amino]-6-chloroquinolin-2-yl}-N,N-dimethyl-2,3,4,5-tetrahydro-1H-2-benzazepine-7-carboxamide]",3.14
4,"NCCNc1cc(N2Cc3ccc(Br)cc3CCC2=O)nc2ccccc12 [Example 124, 2-{4-[(2-Aminoethyl)amino]quinolin-2-yl}-7-bromo-1,2,4,5-tetrahydro-3H-2-benz azepin-3-one]",6.1
5,"N=C(N)NCCNc1cc(N2CCCc3ccccc3C2)nc2ccccc12 [Example 125, 1-(2-{[2-(1,3,4,5-Tetrahydro-2H-2-benzazepin-2-yl)quinolin-4-yl]amino}ethyl)guanidine trifluoroacetate]",2.52
6,"NCC(=O)Nc1cc(N2CCCc3ccccc3C2)nc2ccccc12 [Example 127, N-[2-(1,3,4,5-Tetrahydro-2H-2-benzazepin-2-yl)quinolin-4-yl]glycinamide]",6.25
7,"NCCCc1cc(N2CCCc3ccccc3C2)nc2ccccc12 [Example 128, 3-[2-(1,3,4,5-Tetrahydro-2H-2-benzazepin-2-yl)quinolin-4-yl]propan-1-amine]",7.17
8,"OCc1cc(N2CCCc3ccccc3C2)nc2ccccc12 [Example 129, [2-(1,3,4,5-Tetrahydro-2H-2-benzazepin-2-yl)quinolin-4-yl]methanol]",7.88
9,"NC1=N[C@@H](CCc2cc(N3CCCc4ccccc4C3)nc3ccccc23)CO1 [Example 131, (4S)-4-{2-[2-(1,3,4,5-Tetrahydro-2H-2-benzazepin-2-yl)quinolin-4-yl]ethyl}-4,5-dihydro-1,3-oxazol-2-amine]",2.52
10,"NCCNS(=O)(=O)c1cc(N2CCCc3ccccc3C2)nc2ccccc12 [Example 132, N-(2-Aminoethyl)-2-(1,3,4,5-tetrahydro-2H-2-benzazepin-2-yl)quinoline-4-sulfonamide trifluoroacetate]",7.81

# More lines, now with the values ahead:
row,EC50 [µM],SMILES
1,1.79,"CCS(=O)(=O)c1ccc2c(c1)CCCN(c1cc(NCCN)c3ccccc3n1)C2 [Example 120-2, N-{2-[7-(Ethylsulfonyl)-1,3,4,5-tetrahydro-2H-2-benzazepin-2-yl]quinolin-4-yl}ethane-1,2-diamine]"
2,0.79,"NC1=NCC(CNc2cc(N3CCCc4ccccc4C3)nc3ccccc23)O1 (stereo not shown) [Example 126-1, N-[(2-Amino-4,5-dihydro-1,3-oxazol-5-yl)methyl]-2-(1,3,4,5-tetrahydro-2H-2-benzazepin-2-yl)quinolin-4-amine trifluoroacetate]"
3,0.638,"NC1=NCC(CNc2cc(N3CCCc4ccccc4C3)nc3ccc(Cl)cc23)O1 (stereo not shown) [Example 126-2, N-[(2-Amino-4,5-dihydro-1,3-oxazol-5-yl)methyl]-6-chloro-2-(1,3,4,5-tetrahydro-2H-2-benzazepin-2-yl)quinolin-4-amine]"
4,6.84,"Clc1ccc2nc(N3CCCc4ccccc4C3)ccc2c1 [Example 130-1, 2-(6-Chloroquinolin-2-yl)-2,3,4,5-tetrahydro-1H-2-benzazepine]"
5,7.27,"OCC(O)Cc1cc(N2CCCc3ccccc3C2)nc2ccc(Cl)cc12 (stereo not shown) [Example 130-2, 3-[6-Chloro-2-(1,3,4,5-tetrahydro-2H-2-benzazepin-2-yl)quinolin-4-yl]propane-1,2-diol]"
6,0.31,"Cc1ccc2nc(N3CC(=O)Nc4ccccc4C3)cc(NCCN)c2c1 [Example 133-1, 4-{4-[(2-Aminoethyl)amino]-6-methylquinolin-2-yl}-1,3,4,5-tetrahydro-2H-1,4-benzodiazepin-2-one]"
